Measurements: PMC8878317, “Chemogenomics identifies acetyl-coenzyme A synthetase as a target for malaria treatment and prevention” (Cell Chemical Biology, 2022)

Experiments:
PfAcAS T648M = target: T1, PfAcAS T648M (Plasmodium falciparum, UniProt C6KTB4, T648M); experiment: EnzChek assay, recombinant PfAcAS T648M; format: biochemical, P. falciparum; settings: substrate varied, other two saturating
T1 sequence (C6KTB4 1-997 T648M): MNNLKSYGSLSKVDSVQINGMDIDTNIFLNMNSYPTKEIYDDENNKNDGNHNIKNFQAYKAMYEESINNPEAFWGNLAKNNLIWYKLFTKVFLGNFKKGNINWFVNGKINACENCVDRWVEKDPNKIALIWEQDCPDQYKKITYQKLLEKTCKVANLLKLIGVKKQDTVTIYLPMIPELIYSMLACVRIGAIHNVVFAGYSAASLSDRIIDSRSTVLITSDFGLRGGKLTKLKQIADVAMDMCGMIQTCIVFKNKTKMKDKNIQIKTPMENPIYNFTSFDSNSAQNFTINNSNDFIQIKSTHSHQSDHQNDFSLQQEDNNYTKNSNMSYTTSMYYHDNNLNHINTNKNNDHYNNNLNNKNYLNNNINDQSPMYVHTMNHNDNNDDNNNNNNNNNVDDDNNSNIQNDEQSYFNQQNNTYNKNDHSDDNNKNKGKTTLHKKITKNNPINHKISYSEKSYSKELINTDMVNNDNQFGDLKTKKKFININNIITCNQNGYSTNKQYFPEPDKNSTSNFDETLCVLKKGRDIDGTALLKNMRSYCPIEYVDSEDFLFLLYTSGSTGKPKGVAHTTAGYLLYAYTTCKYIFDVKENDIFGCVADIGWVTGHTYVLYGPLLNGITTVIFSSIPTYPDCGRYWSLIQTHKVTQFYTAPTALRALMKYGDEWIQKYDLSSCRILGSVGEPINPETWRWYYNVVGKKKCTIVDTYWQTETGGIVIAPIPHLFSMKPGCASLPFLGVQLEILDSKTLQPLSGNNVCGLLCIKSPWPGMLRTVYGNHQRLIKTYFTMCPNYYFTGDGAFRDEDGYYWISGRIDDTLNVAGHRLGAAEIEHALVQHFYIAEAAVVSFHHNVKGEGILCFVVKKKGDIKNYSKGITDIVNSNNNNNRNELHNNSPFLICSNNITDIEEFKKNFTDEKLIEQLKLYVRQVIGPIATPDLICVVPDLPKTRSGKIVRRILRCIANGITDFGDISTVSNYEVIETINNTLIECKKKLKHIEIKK
Procedure: (§1) Steady-state kinetic measurements were conducted at room temperature using a PheraStar plate reader (BMG). The first step of the reaction of PfAcAS, which produces inorganic pyrophosphate (PPi) that is converted to two molecules of inorganic phosphate using a pyrophosphatase enzyme, was continuously monitored using the EnzChek Phosphate Assay Kit, which gives an absorbance readout at 360 nm (Figure 4A) ([Webb, 1992]). […] By adding CoA, the reaction rapidly proceeds to the second step resulting in further release of pyrophosphate, making the EnzChek assay a suitable option to continuously monitor the activity of PfAcAS. Typical kinetic assays were carried out in clear, flat-bottom, polystyrene, 384-well plates (Greiner) in an 80 μL reaction volume containing 100 mM HEPES (pH7.4), 100 mM NaCl, 250 mM KCl, 50 mM MgCl2, 1 mM DTT, 0.004% Tween 20, 0.5 U/mL pyrophosphatase, 0.1 mM MESG, 0.5 U/mL PNP, 2 mM ATP, 2 mM acetate, 0.5 mM CoA and 5 nM recombinant PfAcAS WT or 10 nM recombinant PfAcAS A597V or T648M. Assays were performed by adding 40 μL of a 2-times concentrated substrate mixture including MESG to all wells, and the reactions started by adding 40 μL of a 2-times concentrated reaction mixture containing all other components. The reactions were carried out for 2 to 4 hr with absorbance readings at 360 nm every two to four minutes. Reaction rates were extracted from the linear phase of activity, usually using 10 to 20 points between times of 30 and 100 min of the reactions. Using a phosphate standard curve obtained under the same buffer conditions used for the PfAcAS reactions (Figure S5A), the rates were then converted to velocity per second, conversion of one nanomolar of phosphate, per nanomolar of enzyme, per second. The substrates Km values were determined by varying the concentration of one of the substrates at saturating concentration of the other two substrates. Steady-state data were fitted using the nonlinear, least-squares, curve-fitting programs of Sigma-Plot for Windows, version 14.0. Individual saturation curves were fit to Equation 1(Equation 1) v=VS/K+S where V is the maximal velocity, S is the substrate concentration and K is the Michaelis constant for the substrate (Km). Individual saturation curves displaying substrate inhibition were fit to Equation 2(Equation 2) v=VS/K+S×(1+S/Ks) where Ks is the substrate inhibition constant.
(§2) To determine the steady-state inhibition parameters and patterns associated with both inhibitors, PfAcAS activity was studied in the presence of variable concentrations of one substrate, ATP, acetate or CoA, fixed saturating concentration of the other two substrates (acetate and CoA, ATP and CoA, or ATP and acetate) and several fixed concentrations of inhibitor. Assay ready plates containing different concentrations of inhibitor were prepared using an Echo 550 acoustic dispenser (Labcyte Inc.). The assays were carried out as described in the previous section. […] For better comparison between both inhibitors and proteins, the ymin was fixed to zero and the ymax to 100. Inhibition data showing linear, competitive patterns in double-reciprocal plots were fit to Equation 4(Equation 4) v=VS/K(1+I/Ki)+S where Ki is the dissociation constant for the enzyme-inhibitor complex. Inhibition data showing linear, mixed inhibition patterns in double-reciprocal plots were fit to Equation 5(Equation 5) v=VS/K(1+I/Kis)+S(1+I/Kii) where Kis is the dissociation constant for the free enzyme-inhibitor complex and Kii is the dissociation constant for the enzyme-substrate-inhibitor complex. Inhibition data showing linear, uncompetitive patterns in double-reciprocal plots were fit to Equation 6(Equation 6) v=VS/K+S(1+I/Ki)

PfAcAS WT = PfAcAS WT (Plasmodium falciparum, UniProt C6KTB4); experiment: EnzChek assay, recombinant PfAcAS WT (steady-state kinetics and IC50); format: biochemical, P. falciparum
Procedure: as §1, §2

PfAcAS A597V = target: T2, PfAcAS A597V (Plasmodium falciparum, UniProt C6KTB4, A597V); experiment: EnzChek assay, recombinant PfAcAS A597V; format: biochemical, P. falciparum; settings: substrate varied, other two saturating
T2 sequence (C6KTB4 1-997 A597V): T1 sequence (C6KTB4 1-997 T648M)
Procedure: as §1, §2

HsAcAS WT = target: T3, HsAcAS WT (Homo sapiens, UniProt Q9NR19); experiment: HsAcAS Rapid-Fire QQQ mass spectrometry assay; format: biochemical; settings: for Km: read-out: Km (µM), HsWT
T3 construct: made in house; host or cells: Expi293 cells (pCDNA 3.1, transient transfection)
Procedure: The human form of acetyl-CoA synthetase was assayed in 100 mM HEPES (pH7.4), 100 mM NaCl, 250 mM KCl, 50 mM MgCl2, 1 mM DTT, 0.005% NP40, 400 μM ATP, 70 μM acetate, 40 μM CoA and 2 nM recombinant HsAcAS. Assay ready plates containing different concentrations of inhibitor were prepared using an Echo 550 acoustic dispenser (Labcyte Inc.), dispensing 150 nL of compound per well. Assays were conducted in a total volume of 15 μL for 30 min at room temperature before being quenched with the addition of 85 μL 1% formic acid containing 0.5 μg/mL n-Propionyl coenzyme A (Sigma P5397) as an internal standard. Reaction products were detected using a RapidFire 365 system (Agilent, Santa Clara, CA) coupled with a triple quadrupole mass spectrometer 6740 (Agilent).
The sipper was washed to minimize carryover with 0.1% TFA in deionized water followed by 0.1% TFA in acetonitrile/deionized water (95%/5%, v/v). The sipper was washed to minimize carryover with deionized water followed by acetonitrile. Aspiration time, load/wash time, elution time, and re-equilibration time were set to 600, 3000, 5000, and 500 ms, respectively, with a cycle time of approximately 10 s. The triple-quadrupole mass spectrometer with electrospray ion source was operated in positive multiple reaction monitoring (MRM) mode. The detailed setting for the mass spectrometer parameters was as follows: capillary voltage, 3000 V; gas temperature, 350°C; gas flow, 7 L/min; nebulizer, 40 psi; sheath gas temperature, 300°C′ sheath gas flow, 11 L/min; and nozzle voltage, 1500 V. The MRM transitions for acetyl-CoA as a reaction product were set as 810.1/303.1 & 810.1/428.1 (quantifier & qualifier with dwell time of 50 ms, 100V fragmentor, and collision energies of 30 & 28 eV respectively) and for n-propionyl-CoA as an internal standard as 824.2/317.2 & 824.2/428.0 (quantifier & qualifier with dwell time of 50 ms, 100V fragmentor, and collision energies of 32 & 26 eV respectively). The mass resolution window for both parental and daughter ions was set at as a unit (0.7 Da). Peak areas were integrated, and area ratios of acetyl-CoA to the internal standard (n-propionyl CoA) were used for quantitation. Data were converted to % inhibition relative to the uninhibited enzyme control and fitted to Equation 3.

[1] = substrate varied, other two saturating

T3 sequence (Q9NR19 whole entry): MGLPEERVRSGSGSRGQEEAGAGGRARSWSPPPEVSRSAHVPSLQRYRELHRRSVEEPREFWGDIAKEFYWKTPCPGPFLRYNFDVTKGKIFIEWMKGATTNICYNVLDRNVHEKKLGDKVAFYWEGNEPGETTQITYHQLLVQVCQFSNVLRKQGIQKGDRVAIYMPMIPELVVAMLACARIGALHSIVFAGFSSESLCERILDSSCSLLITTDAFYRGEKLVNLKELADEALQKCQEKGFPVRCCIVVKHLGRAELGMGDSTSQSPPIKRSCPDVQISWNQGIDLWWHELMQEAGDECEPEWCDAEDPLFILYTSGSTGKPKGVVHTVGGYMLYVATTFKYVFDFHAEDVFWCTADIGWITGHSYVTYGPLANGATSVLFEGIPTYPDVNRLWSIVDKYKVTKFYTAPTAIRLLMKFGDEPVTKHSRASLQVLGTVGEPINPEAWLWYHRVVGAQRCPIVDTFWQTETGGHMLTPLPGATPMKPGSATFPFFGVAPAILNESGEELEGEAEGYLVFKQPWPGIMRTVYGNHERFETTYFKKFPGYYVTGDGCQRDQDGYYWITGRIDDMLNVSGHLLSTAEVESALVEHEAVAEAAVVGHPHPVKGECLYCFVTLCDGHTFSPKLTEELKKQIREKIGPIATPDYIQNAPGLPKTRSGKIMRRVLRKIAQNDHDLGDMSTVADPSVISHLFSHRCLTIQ

Structure (SMILES)	Km (PfAcAS T648M) [µM]	Vmax (s-1), PfAcAS T648M (PfAcAS T648M) [s⁻¹]	Km (PfAcAS WT; [1]) [µM]	Vmax (s-1), PfAcAS WT (PfAcAS WT; [1]) [s⁻¹]	Km (PfAcAS A597V) [µM]	Vmax (s-1), PfAcAS A597V (PfAcAS A597V) [s⁻¹]	Km (HsAcAS WT) [µM]	Ki (µM), substrate inhibition, HsWT (HsAcAS WT; substrate inhibition constant) [µM]	Ki (µM), substrate inhibition, PfAcAS WT (PfAcAS WT; substrate inhibition constant) [µM]
Nc1ncnc2c1ncn2[C@@H]1O[C@H](COP(=O)(O)OP(=O)(O)OP(=O)(O)O)[C@@H](O)[C@H]1O [ATP]	400 ± 17	1.9 ± 0.03	93	2.4 ± 0.03	140 ± 5	0.54 ± 0.01			
CC(C)(COP(=O)(O)OP(=O)(O)OC[C@H]1O[C@@H](n2cnc3c(N)ncnc32)[C@H](O)[C@@H]1OP(=O)(O)O)[C@@H](O)C(=O)NCCC(=O)NCCS [CoA]	82 ± 6		42		61 ± 6	0.84 ± 0.05	36 ± 5	1000 ± 190	2700 ± 310
CC(=O)O [acetate]	190 ± 8		72		400 ± 12	0.54 ± 0.05	61 ± 4		
